Results as given in PubChem BioAssay (NCI).
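Following 48 hours of exposure in 96-well plates, responses at five concentrations were used to interpolate endpoints linearly. The concentration for full growth arrest is given as TGI.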

How the values were obtained:
Test in all cases: NCI-60 cell line screen, 48 h
[1] = test system: SK-MEL-28 melanoma
[2] = test system: UACC-257 melanoma
[3] = test system: OVCAR-8 ovarian
[4] = test system: OVCAR-3 ovarian
[5] = test system: NCI-H226 lung
[6] = test system: T-47D breast
[7] = test system: NCI-H23 lung
[8] = test system: EKVX NSCLC
[9] = test system: HOP-62 NSCLC
[10] = test system: HOP-92 NSCLC
[11] = test system: SF-268 CNS
[12] = test system: 786-0 renal
[13] = test system: LOX IMVI melanoma
[14] = test system: HCT-15 colon
[15] = test system: A498 renal
[16] = test system: SNB-19 CNS
[17] = test system: KM12 colon
[18] = test system: COLO 205 colon
[19] = test system: HCC-2998 colon
[20] = test system: OVCAR-5 ovarian
[21] = test system: OVCAR-4 ovarian
[22] = test system: CCRF-CEM leukemia
[23] = test system: SF-295 CNS
[24] = test system: NCI-H522 lung
[25] = test system: SK-OV-3 ovarian
[26] = test system: A549 NSCLC
[27] = test system: SR leukemia
[28] = test system: MALME-3M melanoma
[29] = test system: K-562 leukemia
[30] = test system: RPMI-8226 leukemia
[31] = test system: M14 melanoma
[32] = test system: TK-10 renal
[33] = test system: RXF 393 renal
[34] = test system: BT-549 breast
[35] = test system: UO-31 renal
[36] = test system: IGROV1 ovarian
[37] = test system: NCI-H460 lung
[38] = test system: SNB-75 CNS
[39] = test system: CAKI-1 renal
[40] = test system: MCF7 breast
[41] = test system: U251 CNS
[42] = test system: HL-60(TB) leukemia
[43] = test system: ACHN renal
[44] = test system: HS 578T breast
[45] = test system: DU-145 prostate
[46] = test system: SW-620 colon
[47] = test system: SF-539 CNS
[48] = test system: MDA-N
[49] = test system: MOLT-4 leukemia
[50] = test system: UACC-62 melanoma
[51] = test system: HT29 colon
[52] = test system: PC-3 prostate
[53] = test system: NCI/ADR-RES ovarian
[54] = test system: HCT-116 colon
[55] = test system: SK-MEL-2 melanoma
[56] = test system: MDA-MB-231 breast
[57] = test system: SK-MEL-5 melanoma
[58] = test system: MDA-MB-435
[59] = test system: SN12C renal

`C[C@]12CC[C@H]3[C@@H](CC=C4C[C@@H](O)CC[C@@]43C)[C@@H]1C/C(=C/c1ccccc1)[C@@H]2O` was tested, and the TGI [1] was > 91.2 µM, the TGI [2] was 45.4 µM and the TGI [3] was 52.1 µM. The TGI [4] was 43.3 µM, the TGI [5] was 66.1 µM and the TGI [6] was > 59.1 µM. The TGI [7] was > 100 µM, the TGI [8] was > 70 µM and the TGI [9] was 54.8 µM. The TGI [10] was > 69.6 µM, the TGI [11] was 89.2 µM and the TGI [12] was > 51.9 µM. For the same molecule, the TGI [13] was > 50.2 µM, the TGI [14] was > 100 µM and the TGI [15] was 35.8 µM. The TGI [16] was > 56.5 µM, the TGI [17] was > 78.8 µM and the TGI [18] was 98.9 µM. The TGI [19] was > 60.3 µM, the TGI [20] was > 76.5 µM and the TGI [21] was > 73.2 µM. For the same molecule, the TGI [22] was > 100 µM, the TGI [23] was > 65.9 µM and the TGI [24] was > 100 µM. For the same molecule, the TGI [25] was > 66.7 µM, the TGI [26] was > 51.5 µM and the TGI [27] was > 100 µM. The TGI [28] was 79.4 µM, the TGI [29] was > 100 µM and the TGI [30] was > 100 µM. The TGI [31] was > 77.8 µM, the TGI [32] was > 53.3 µM and the TGI [33] was > 57 µM. The TGI [34] was 72.4 µM, the TGI [35] was > 62 µM and the TGI [36] was 43.9 µM. For the same molecule, the TGI [37] was > 100 µM, the TGI [38] was > 68.5 µM and the TGI [39] was > 58.9 µM. For the same molecule, the TGI [40] was > 68.2 µM, the TGI [41] was > 50.5 µM and the TGI [42] was > 100 µM. The TGI [43] was > 61.4 µM, the TGI [44] was 98 µM and the TGI [45] was > 64.2 µM. The TGI [46] was > 100 µM, the TGI [47] was > 86.2 µM and the TGI [48] was 65.5 µM. The TGI [49] was > 100 µM, the TGI [50] was 56.5 µM and the TGI [51] was > 79.3 µM. The TGI [52] was > 57.2 µM, the TGI [53] was > 89.1 µM and the TGI [54] was > 45.3 µM. For the same molecule, the TGI [55] was 57.9 µM, the TGI [56] was > 76.9 µM and the TGI [57] was > 100 µM. For the same molecule, the TGI [58] was > 83.4 µM.

For `COc1cc2cc(C(=O)Nc3cc4n(n3)-c3ccccc3C4)[nH]c2c(OC)c1OC`, the TGI [1] was 9.66 µM, the TGI [2] was 9.26 µM and the TGI [3] was 3.78 µM. It also gave a TGI [4] of 11.8 µM, a TGI [5] of 3.95 µM and a TGI [6] of 2.39 µM. The TGI [7] was 10.5 µM, the TGI [8] was 11.5 µM and the TGI [9] was 6.43 µM. It also gave a TGI [10] of 16.6 µM, a TGI [11] of 15.1 µM and a TGI [12] of 17.8 µM. For the same molecule, the TGI [13] was 12.7 µM, the TGI [14] was 9.61 µM and the TGI [15] was 50 µM. It also gave a TGI [16] of 27.6 µM, a TGI [17] of 7.83 µM and a TGI [18] of 9.45 µM. The TGI [19] was 21 µM, the TGI [20] was 17.8 µM and the TGI [21] was 6.16 µM. The TGI [22] was 3.42 µM, the TGI [23] was 11.6 µM and the TGI [24] was 4.13 µM. The TGI [25] was 19.4 µM, the TGI [26] was 7.63 µM and the TGI [27] was 11.5 µM. For the same molecule, the TGI [28] was 6.43 µM, the TGI [29] was 14.9 µM and the TGI [30] was 3.14 µM. For the same molecule, the TGI [31] was 6.86 µM, the TGI [32] was 9.27 µM and the TGI [33] was 50 µM. The TGI [34] was 3.57 µM, the TGI [35] was 6.8 µM and the TGI [36] was 9.79 µM. The TGI [37] was 7.1 µM, the TGI [38] was 13.9 µM and the TGI [39] was 6.3 µM. It also gave a TGI [40] of 14.1 µM, a TGI [41] of 22.7 µM and a TGI [42] of 6.1 µM. For the same molecule, the TGI [43] was 17.6 µM, the TGI [44] was 16.4 µM and the TGI [45] was 14.3 µM. The TGI [46] was 19.1 µM, the TGI [47] was 17.8 µM and the TGI [48] was 8.52 µM. For the same molecule, the TGI [49] was 2.2 µM, the TGI [51] was 25.5 µM and the TGI [52] was 10.4 µM. It also gave a TGI [59] of 25.6 µM, a TGI [53] of 3.86 µM and a TGI [54] of 9.65 µM. For the same molecule, the TGI [55] was 8.39 µM, the TGI [56] was 19.3 µM and the TGI [57] was 5.23 µM. It also gave a TGI [58] of 5.28 µM.

For `C#C/C=C\CCCCCCCCCCCCCC/C=C\CCCCC#CC(O)C#CCCCC/C=C\CCCCCC/C=C/C(O)C#C` (centres undefined), the TGI [1] was > 72 µM, the TGI [2] was > 63.4 µM and the TGI [3] was > 59.5 µM. For the same molecule, the TGI [4] was > 55.1 µM, the TGI [5] was > 59.4 µM and the TGI [6] was 26 µM. The TGI [7] was > 42.6 µM, the TGI [8] was 35.9 µM and the TGI [9] was > 75 µM. For the same molecule, the TGI [10] was 36.8 µM, the TGI [11] was 44.4 µM and the TGI [12] was 26.7 µM. For the same molecule, the TGI [13] was 8.75 µM, the TGI [14] was > 62.3 µM and the TGI [15] was 74.4 µM. For the same molecule, the TGI [16] was > 75 µM, the TGI [17] was 20.1 µM and the TGI [18] was 35.6 µM. For the same molecule, the TGI [19] was 37 µM, the TGI [20] was > 75 µM and the TGI [21] was 26.4 µM. The TGI [22] was > 47.5 µM, the TGI [23] was > 55.6 µM and the TGI [24] was > 16 µM. For the same molecule, the TGI [25] was > 75 µM, the TGI [26] was 37.1 µM and the TGI [27] was > 60.8 µM. The TGI [28] was 33.8 µM, the TGI [29] was > 75 µM and the TGI [31] was > 38.3 µM. The TGI [32] was > 49 µM, the TGI [33] was 41.4 µM and the TGI [34] was > 75 µM. For the same molecule, the TGI [35] was 37.4 µM, the TGI [36] was 31 µM and the TGI [37] was > 75 µM. For the same molecule, the TGI [38] was > 75 µM, the TGI [39] was 18.1 µM and the TGI [40] was > 40.2 µM. The TGI [41] was > 75 µM, the TGI [42] was 43.6 µM and the TGI [43] was > 75 µM. The TGI [44] was > 75 µM, the TGI [45] was > 75 µM and the TGI [46] was > 52.9 µM. For the same molecule, the TGI [47] was > 75 µM, the TGI [48] was 24.2 µM and the TGI [49] was > 68 µM. The TGI [50] was 36.8 µM, the TGI [51] was > 48.8 µM and the TGI [52] was > 57.7 µM. The TGI [59] was > 75 µM, the TGI [53] was > 75 µM and the TGI [54] was > 32.8 µM. For the same molecule, the TGI [55] was 37.1 µM, the TGI [56] was > 75 µM and the TGI [57] was 17.6 µM. The TGI [58] was 17.2 µM.
